Data on three molecules can be found in PMC8904520, “Characterization of a small-molecule inhibitor targeting NEMO/IKKβ to suppress colorectal cancer growth” (Signal Transduction and Targeted Therapy, 2022).

Test [1] has as its system colorectal cancer cells (LoVo, RKO, SW620, HCT15, HCT116). Put plainly: CCK-8 cell viability assay, colorectal cancer cells. To be noted: LoVo, RKO, SW620, HCT15, HCT116; 48 h. It counts as cell-based, human. On the procedure:
Cell viability was determined using the CCK-8 assay. Briefly, 5×10³ cells were seeded into 96-well culture plates, allowed to adhere for overnight, and then changed to fresh medium containing various concentrations of SHK (0, 0.5, 1, 2 and 5 µM) dissolved in DMSO (final concentration, 0.1%). After incubation for 48 h, the CCK-8 reagent was added, and the absorbance was measured at 450 nm using an EnSpire® Multimode Plate Reader (Perkin Elmer, USA). The cell viability in the vehicle control groups was defined as 100%. Each assay was carried out in triplicate.

Test [2] has as its target T1, NEMO/IKKβ complex (Homo sapiens, UniProt O14920+Q9Y6K9).
T1 construct: expressed in transfected cells; host or cells: HEK293T
Put plainly: Co-immunoprecipitation of NEMO/IKKβ. To be noted: pre-formed complex, Co-IP. On the procedure: The pre-cleared cell lysates were incubated with an anti-HA antibody on a rotating platform at 4 °C for 2 h, and then incubated for another 6 h with protein A/G-sepharose beads. The sepharose beads were washed three times with binding buffer, mixed with gel loading buffer and boiled for 5 min. The samples were centrifuged and the supernatants were used for western blot analysis. A specific antibody against the Flag-tag was applied for the detection of proteins.
The IKKβ and NEMO expression vectors were constructed by subcloning the full-length cDNA to pENTER-4T1 expression vector (Flag- or HA-tagged) developed by ViGene Biosciences, as described previously.[25] The 293T cells (1 × 10^6) were plated into 60 mm dishes for 1 day, and then transfected with the relevant plasmids encoding HA-IKKβ and Flag-NEMO using Lipofectamine 2000 transfection reagent (Invitrogen). After transfection, the cells were cultured for another 24 h. Subsequently, the transfected cells were trypsinized and seeded into 60 mm dishes, followed by culturing with fresh medium containing the indicated doses of SHK for 48 h, and then collected for the Co-IP assay.

T1 sequence (Q9Y6K9 1-196): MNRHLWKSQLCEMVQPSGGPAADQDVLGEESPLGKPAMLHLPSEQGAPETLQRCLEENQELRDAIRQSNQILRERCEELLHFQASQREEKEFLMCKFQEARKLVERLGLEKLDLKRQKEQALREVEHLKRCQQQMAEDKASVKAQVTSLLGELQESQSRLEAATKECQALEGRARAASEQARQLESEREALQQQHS
T1 sequence (O14920 701-745): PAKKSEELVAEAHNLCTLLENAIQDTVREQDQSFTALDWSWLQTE

Turning to `CC(=O)O[C@H](CC=C(C)C)C1=CC(=O)c2c(O)ccc(O)c2C1=O` [ASHK, acetyl shikonin], the “growth inhibition of cancer cell lines” value in test [1] is “only slight growth inhibition”. In addition, in test [2], the “ability to destabilize the NEMO/IKKβ complex” value is “lost the ability to destabilize the NEMO/IKKβ complex”.

`CC(C)=CCCC1=CC(=O)c2c(O)ccc(O)c2C1=O` [DSHK, deoxyshikonin]: the “growth inhibition of cancer cell lines” value in test [1] was “only slight growth inhibition”. Also, the “ability to destabilize the NEMO/IKKβ complex” value in test [2] was “lost the ability to destabilize the NEMO/IKKβ complex”.

For the molecule `COC(CC=C(C)C)C1=CC(=O)c2c(O)ccc(O)c2C1=O` (stereo not drawn) [MSHK, methylshikonin], the “growth inhibition of cancer cell lines” value in test [1] is reported as “only slight growth inhibition”. Besides, the “ability to destabilize the NEMO/IKKβ complex” value in test [2] was “lost the ability to destabilize the NEMO/IKKβ complex”.
